The structures appear in SMILES notation.

In the experiment the target is BRD4-BD1 (Homo sapiens (Human), UniProt O60885). The experiment in a line: BRD4-H4 Tetraacetylated Peptide Inhibition AlphaScreen. In kind it is binding. As to conditions: GST-BRD4-BD1 (aa 44-168), biotinylated Acetyl-Histone H4 peptide. The procedure:
Compounds are diluted in serial dilution 1:5 in assay buffer from 10 mM stock in DMSO (100 μM start concentration) in white OptiPlate-384 (PerkinElmer). […] Subsequently, 6 μl of premixed AlphaLISA Glutathione Acceptor Beads and AlphaScreen Streptavidin Donor Beads from PerkinElmer (in assay buffer at a concentration of 10 μg/ml each) are added and the samples are incubated for 30 min at RT in the dark (shaking 300 rpm). Afterwards, the signal is measured in a PerkinElmer Envision HTS Multilabel Reader using the AlphaScreen protocol from PerkinElmer. […] Negative control values are entered as low basis value when using the software GraphPad Prism for calculations. Furthermore, a positive control (probe molecule JQ1+ with protein/peptide mix) is pipetted. Determination of IC50 values are carried out using GraphPad Prism 3.03 software (or updates thereof).
Compound `CN1CCN(c2ccc3nc(-c4cc(N)c(=O)n(C)c4)n(Cc4ccccc4)c3c2)CC1` [Example V-3] came in with an IC50 of 73 nM.

`Cn1nc(-c2nc3ccccc3n2Cc2ccccc2)ccc1=O` [Example I-15] showed a half-maximal inhibitory concentration (IC50) of 1380 nM. Under `Cc1cc(-c2nc3cnc(N)cc3n2[C@@H](C)c2ccccc2)cn(C)c1=O` [II-42] stands 35 nM; under `Cc1cc(-c2nc3cnc(C4CCOCC4)cc3n2[C@@H](C)c2ccccn2)cn(C)c1=O` [II-34], 120 nM. The result for `Cc1cc(-c2nc3cnc(Cl)cc3n2C(C)c2ccccn2)cn(C)c1=O` (centres unmarked) [II-36] reads 650 nM; that for `Cc1cc(-c2nc3cnccc3n2Cc2ccccc2)cn(C)c1=O` [II-8], 148 nM. On to `CCn1cc(-c2nc3ccc(N4CCN(C)CC4)cc3n2Cc2ccccc2)cc(C)c1=O` [Example I-10], for which it took 49 nM to reach half-maximal inhibition (IC50). Under `Cc1cc(-c2nc3cnc(N4CCOCC4)cc3n2[C@H](C)c2ccccc2)cn(C)c1=O` [II-18] stands 233 nM; under `Cc1cc(-c2nc3cnccc3n2Cc2ccccc2F)cn(C)c1=O` [II-28], 128 nM. The compound `Cc1cc(-c2nc3cc(S(=O)(=O)N(C)C)cnc3n2Cc2ccccc2)cn(C)c1=O` [IV-9] gave a half-maximal inhibitory concentration (IC50) of 119 nM.

Compound `Cc1cc(-c2nc3cnc(C4=CCCCO4)cc3n2C(C)c2ccccn2)cn(C)c1=O` (centres unmarked) [II-40] yielded an IC50 of 295 nM. `CN1CCN(c2ccc3nc(-c4cn(C)c(=O)cn4)n(Cc4ccccc4)c3c2)CC1` [Example I-20] came in with an IC50 of 121 nM. Take `Cc1c(-c2nc3cnc(N4CCN(C)CC4)cc3n2Cc2ccccc2)cn(C)c(=O)c1C` [II-41]: half-maximal inhibition (IC50) required 1200 nM.

Compound `Cc1cc(-c2nc3ccccc3n2Cc2ccccc2)c[nH]c1=O` [Example I-8] registered a half-maximal inhibitory concentration (IC50) of 609 nM. Under `COC[C@H](C)n1c(-c2cc(C)c(=O)n(C)c2)nc2cnc(N3CCOC[C@@H]3C)cc21` [II-11] stands 102 nM; under `Cc1cc(-c2nc3cccnc3n2Cc2ccccc2)cn(C)c1=O` [III-3], 45 nM.

The compound `Cc1cc(-c2nc3ccc(C#N)cc3n2Cc2ccccc2)cn(C)c1=O` [Example I-23] gave a half-maximal inhibitory concentration (IC50) of 190 nM. As for `Cc1cc(-c2nc3cc(Cl)cnc3n2Cc2ccccc2)cn(C)c1=O` [IV-3], half-maximal inhibition (IC50) was put at 188 nM.

In the case of `Cc1cc(-c2nc3ccc(N4CCOCC4)cc3n2Cc2ccccc2)c[nH]c1=O` [Example I-3], the IC50 worked out at 109 nM. The result for `COC[C@H](C)n1c(-c2cc(C)c(=O)n(C)c2)nc2ccc(N3CCOC[C@@H]3C)cc21` [Example I-31] reads 75 nM; that for `Cc1cc(-c2nc3cnc(C(C)C)cc3n2[C@@H](C)c2ccccc2)cn(C)c1=O` [II-24], 38 nM; that for `Cc1cc(-c2nc3cnc(N4CCOC[C@@H]4C)cc3n2Cc2ccccc2)cn(C)c1=O` [II-15], 42 nM. The result for `Cn1cc(-c2nc3ccccc3n2Cc2ccccc2)cc(N)c1=O` [Example V-2, 3-amino-5-(1-benzyl-1H-benzoimidazol-2-yl)-1-methyl-1H-pyridin-2-one] reads 1350 nM.

Take `Cc1cc(-c2nc3ccc(C4(C(F)(F)F)CC4)cc3n2Cc2ccccn2)cn(C)c1=O` [Example I-30]: it took 63 nM to reach half-maximal inhibition (IC50). The result for `Cc1cc(-c2nc3cnccc3n2Cc2ccc(Cl)cc2)cn(C)c1=O` [II-23] reads 33 nM; that for `Cc1cc(-c2nc3cnc(N4CCOC[C@@H]4C)cc3n2[C@@H](C)c2ccccc2)cn(C)c1=O` [II-31], 40 nM; that for `Cn1cc(-c2nc3cnc(N4CCOCC4)cc3n2Cc2ccccc2)cc(Cl)c1=O` [II-32], 105 nM. Under `CC1CC(=O)NN=C1c1ccc2c(c1)nc(-c1cc(N)c(=O)n(C)c1)n2Cc1ccccc1` (centres unmarked) [Example V-1, 6-[2-(5-Amino-1-methyl-6-oxo-1,6-dihydro-pyridin-3-yl)-1-benzyl-1H-benzoimidazol-5-yl]-5-methyl-4,5-dihydro-2H-pyridazin-3-one] stands 145 nM; under `Cc1cc(-c2nc3cnc(N4CCN(C)CC4)cc3n2Cc2ccccc2)cn(C)c1=O` [II-1], 19 nM. The result for `Cc1cc(-c2nc3cnc(N4CCOCC4)cc3n2Cc2ccncc2)cn(C)c1=O` [II-14] reads 63 nM. In the case of `COC[C@H](C)n1c(-c2cc(C)c(=O)n(C)n2)nc2cnc(N3CCOC[C@@H]3C)cc21` [II-30], the IC50 was 62 nM. Under `COC[C@H](C)n1c(-c2cc(C)c(=O)n(C)c2)nc2ccc(N)cc21` [Example I-32] stands 268 nM.
